Assay results published in PMC8213057, “Targeting ALK2: An Open Science Approach to Developing Therapeutics for the Treatment of Diffuse Intrinsic Pontine Glioma” (Journal of Medicinal Chemistry, 2020).

Experiments:
DLK/MAP3K12 = target: T1, DLK/MAP3K12 (Homo sapiens, UniProt Q12852); test: biochemical; details: read-out: % enzyme activity, 1 μM; Run 1, Run 2
T1 sequence (Q12852 1-859): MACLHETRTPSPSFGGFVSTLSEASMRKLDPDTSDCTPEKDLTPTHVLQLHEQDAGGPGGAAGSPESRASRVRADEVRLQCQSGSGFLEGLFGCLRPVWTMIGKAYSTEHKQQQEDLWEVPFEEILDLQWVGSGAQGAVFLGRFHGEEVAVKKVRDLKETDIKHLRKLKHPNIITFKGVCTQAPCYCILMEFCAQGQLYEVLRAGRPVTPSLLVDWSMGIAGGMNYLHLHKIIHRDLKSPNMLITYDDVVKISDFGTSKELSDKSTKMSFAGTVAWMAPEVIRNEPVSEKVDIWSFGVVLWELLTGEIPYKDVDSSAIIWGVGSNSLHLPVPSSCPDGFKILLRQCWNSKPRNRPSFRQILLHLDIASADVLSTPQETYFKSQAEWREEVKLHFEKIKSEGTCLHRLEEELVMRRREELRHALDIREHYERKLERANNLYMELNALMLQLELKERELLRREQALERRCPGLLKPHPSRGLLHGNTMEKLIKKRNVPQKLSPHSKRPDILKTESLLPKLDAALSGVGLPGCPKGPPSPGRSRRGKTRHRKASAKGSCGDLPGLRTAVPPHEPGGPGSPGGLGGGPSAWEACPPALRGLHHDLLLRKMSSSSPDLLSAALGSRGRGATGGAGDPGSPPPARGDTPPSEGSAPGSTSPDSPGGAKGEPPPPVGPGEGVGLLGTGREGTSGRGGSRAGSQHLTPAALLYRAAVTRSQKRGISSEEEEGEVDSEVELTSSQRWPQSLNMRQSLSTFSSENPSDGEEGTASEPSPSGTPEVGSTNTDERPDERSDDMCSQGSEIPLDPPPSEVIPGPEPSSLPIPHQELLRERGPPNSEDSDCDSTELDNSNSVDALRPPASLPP

PIM2 = PIM2 (Homo sapiens, UniProt Q9P1W9); test: biochemical; details: read-out: % enzyme activity, 1 μM; Run 1, Run 2
PIM2, sequence (Q9P1W9 whole entry): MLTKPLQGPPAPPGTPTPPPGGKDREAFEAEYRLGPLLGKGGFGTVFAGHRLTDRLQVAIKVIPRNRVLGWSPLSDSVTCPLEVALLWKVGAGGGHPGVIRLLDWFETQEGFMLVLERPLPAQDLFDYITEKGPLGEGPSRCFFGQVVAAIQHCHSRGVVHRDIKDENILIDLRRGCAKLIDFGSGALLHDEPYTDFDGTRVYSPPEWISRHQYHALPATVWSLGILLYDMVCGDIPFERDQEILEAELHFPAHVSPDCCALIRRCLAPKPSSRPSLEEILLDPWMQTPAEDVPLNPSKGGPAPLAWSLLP

SGK2 = SGK2 (Homo sapiens, UniProt Q9HBY8); test: biochemical; details: read-out: % enzyme activity, 1 μM; Run 1, Run 2
SGK2, sequence (Q9HBY8 whole entry): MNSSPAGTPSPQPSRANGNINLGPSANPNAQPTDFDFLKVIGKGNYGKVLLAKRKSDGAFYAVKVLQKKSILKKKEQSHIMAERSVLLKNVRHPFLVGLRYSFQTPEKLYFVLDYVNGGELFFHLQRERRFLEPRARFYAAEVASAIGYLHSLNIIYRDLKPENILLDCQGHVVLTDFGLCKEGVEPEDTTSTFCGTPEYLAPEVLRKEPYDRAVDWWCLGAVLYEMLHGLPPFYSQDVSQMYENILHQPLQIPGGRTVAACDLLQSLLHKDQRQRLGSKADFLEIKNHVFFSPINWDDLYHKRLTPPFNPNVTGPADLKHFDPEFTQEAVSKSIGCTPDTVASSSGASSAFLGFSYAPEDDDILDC

EPHA5 = EPHA5 (Homo sapiens, UniProt P54756); details: 1 μM; Run 1, Run 2
EPHA5, sequence (P54756 25-1037): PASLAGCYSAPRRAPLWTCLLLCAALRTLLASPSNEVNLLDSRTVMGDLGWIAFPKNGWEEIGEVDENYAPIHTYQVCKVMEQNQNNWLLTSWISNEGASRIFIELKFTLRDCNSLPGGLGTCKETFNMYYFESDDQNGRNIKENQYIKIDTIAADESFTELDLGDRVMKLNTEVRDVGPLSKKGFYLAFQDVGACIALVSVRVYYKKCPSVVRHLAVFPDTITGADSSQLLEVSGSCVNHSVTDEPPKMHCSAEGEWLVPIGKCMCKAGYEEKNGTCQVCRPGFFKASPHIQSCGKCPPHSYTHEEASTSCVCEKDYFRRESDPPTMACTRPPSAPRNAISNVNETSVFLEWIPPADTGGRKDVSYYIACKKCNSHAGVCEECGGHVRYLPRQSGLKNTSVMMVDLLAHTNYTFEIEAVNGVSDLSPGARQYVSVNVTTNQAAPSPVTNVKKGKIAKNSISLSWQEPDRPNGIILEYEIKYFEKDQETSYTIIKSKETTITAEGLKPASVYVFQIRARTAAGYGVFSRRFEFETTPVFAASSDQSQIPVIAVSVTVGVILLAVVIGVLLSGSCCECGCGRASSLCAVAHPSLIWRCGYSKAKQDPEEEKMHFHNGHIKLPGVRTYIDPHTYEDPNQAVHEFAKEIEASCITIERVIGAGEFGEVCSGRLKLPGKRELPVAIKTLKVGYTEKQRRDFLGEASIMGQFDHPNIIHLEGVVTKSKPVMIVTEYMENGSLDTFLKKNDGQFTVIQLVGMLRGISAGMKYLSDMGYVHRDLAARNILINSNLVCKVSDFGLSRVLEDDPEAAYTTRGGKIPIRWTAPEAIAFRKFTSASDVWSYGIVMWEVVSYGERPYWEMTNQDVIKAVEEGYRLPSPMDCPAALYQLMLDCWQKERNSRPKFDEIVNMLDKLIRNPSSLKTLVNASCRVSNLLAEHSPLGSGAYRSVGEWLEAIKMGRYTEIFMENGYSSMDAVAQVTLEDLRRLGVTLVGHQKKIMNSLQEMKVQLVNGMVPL

ZAP70 = target: T2, ZAP70 (Homo sapiens, UniProt P43403); details: 1 μM; Run 1, Run 2
T2 sequence (P43403 1-619): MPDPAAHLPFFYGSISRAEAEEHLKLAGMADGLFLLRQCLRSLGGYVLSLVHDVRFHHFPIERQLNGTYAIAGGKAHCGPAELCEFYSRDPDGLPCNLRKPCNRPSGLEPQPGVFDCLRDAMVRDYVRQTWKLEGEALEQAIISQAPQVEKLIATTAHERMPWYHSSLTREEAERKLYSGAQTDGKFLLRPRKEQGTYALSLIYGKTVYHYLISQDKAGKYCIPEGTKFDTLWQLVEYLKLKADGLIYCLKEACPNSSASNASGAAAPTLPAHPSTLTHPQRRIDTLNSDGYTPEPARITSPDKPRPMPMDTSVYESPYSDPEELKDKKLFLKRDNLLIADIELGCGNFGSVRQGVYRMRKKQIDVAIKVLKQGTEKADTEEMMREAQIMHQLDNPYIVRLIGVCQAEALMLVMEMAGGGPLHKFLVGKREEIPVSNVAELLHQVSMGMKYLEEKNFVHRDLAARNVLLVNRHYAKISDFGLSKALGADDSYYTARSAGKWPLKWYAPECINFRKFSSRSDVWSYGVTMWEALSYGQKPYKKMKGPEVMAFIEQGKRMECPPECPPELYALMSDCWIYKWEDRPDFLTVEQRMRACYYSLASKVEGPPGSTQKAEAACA

FLT1/VEGFR1 = FLT1/VEGFR1 (Homo sapiens, UniProt P17948); details: 1 μM; Run 1, Run 2
FLT1/VEGFR1, sequence (P17948 27-1338): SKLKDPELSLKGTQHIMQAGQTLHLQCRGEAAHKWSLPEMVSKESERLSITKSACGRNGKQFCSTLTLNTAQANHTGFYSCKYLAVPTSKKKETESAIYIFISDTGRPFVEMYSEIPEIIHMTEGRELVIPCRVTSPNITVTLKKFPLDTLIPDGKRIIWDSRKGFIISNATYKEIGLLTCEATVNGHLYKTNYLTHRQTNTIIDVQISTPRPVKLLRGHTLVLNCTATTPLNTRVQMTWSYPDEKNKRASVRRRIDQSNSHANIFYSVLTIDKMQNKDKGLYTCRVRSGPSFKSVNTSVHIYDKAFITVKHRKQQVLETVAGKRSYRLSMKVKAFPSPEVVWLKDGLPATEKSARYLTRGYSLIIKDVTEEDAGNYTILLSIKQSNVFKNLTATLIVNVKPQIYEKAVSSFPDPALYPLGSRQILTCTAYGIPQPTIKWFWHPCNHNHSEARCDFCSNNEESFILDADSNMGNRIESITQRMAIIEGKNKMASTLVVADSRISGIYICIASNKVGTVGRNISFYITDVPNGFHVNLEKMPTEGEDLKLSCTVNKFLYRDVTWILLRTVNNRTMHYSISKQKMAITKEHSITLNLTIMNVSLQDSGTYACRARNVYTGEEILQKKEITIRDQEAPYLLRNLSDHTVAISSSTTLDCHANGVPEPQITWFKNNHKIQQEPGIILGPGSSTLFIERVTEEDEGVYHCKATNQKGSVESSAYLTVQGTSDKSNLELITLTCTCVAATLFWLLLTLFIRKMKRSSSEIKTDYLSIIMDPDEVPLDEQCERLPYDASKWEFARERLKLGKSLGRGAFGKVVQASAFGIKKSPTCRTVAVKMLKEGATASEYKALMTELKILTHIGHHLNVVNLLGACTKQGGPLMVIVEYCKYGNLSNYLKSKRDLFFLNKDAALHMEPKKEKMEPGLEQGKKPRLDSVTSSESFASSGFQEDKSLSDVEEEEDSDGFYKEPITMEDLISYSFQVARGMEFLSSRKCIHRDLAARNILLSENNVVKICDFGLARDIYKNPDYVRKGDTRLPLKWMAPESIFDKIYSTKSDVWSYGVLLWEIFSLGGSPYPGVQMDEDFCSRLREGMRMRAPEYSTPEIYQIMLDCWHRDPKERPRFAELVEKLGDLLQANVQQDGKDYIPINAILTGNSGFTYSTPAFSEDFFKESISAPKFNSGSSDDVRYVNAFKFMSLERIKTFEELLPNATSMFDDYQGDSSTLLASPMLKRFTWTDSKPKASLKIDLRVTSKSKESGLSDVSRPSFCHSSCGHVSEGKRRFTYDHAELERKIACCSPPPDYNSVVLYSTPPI

MYLK3 = target: T3, MYLK3 (Homo sapiens, UniProt Q32MK0); details: 1 μM; Run 1, Run 2
T3 sequence (Q32MK0 1-819): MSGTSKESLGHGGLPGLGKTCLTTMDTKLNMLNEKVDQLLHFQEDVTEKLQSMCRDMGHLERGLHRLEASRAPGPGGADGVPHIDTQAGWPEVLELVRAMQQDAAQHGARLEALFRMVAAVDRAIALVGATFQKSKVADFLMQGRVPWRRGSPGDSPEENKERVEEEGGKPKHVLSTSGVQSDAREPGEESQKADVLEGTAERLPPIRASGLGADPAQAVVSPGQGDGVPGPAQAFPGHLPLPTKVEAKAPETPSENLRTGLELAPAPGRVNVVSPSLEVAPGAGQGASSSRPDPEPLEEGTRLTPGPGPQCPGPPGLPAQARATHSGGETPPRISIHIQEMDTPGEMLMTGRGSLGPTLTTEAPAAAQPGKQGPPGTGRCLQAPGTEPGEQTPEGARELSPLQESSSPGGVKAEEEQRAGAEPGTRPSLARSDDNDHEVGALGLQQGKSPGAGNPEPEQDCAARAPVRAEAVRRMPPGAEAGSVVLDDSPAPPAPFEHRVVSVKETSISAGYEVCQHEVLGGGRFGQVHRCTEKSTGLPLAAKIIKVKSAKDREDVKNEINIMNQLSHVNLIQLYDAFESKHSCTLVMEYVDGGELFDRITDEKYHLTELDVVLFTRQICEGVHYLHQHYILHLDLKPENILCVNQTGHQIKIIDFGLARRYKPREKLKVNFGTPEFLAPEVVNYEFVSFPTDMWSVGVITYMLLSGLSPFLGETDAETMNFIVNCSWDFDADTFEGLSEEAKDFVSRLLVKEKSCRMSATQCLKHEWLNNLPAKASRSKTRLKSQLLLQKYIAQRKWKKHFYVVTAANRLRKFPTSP

Structure (SMILES): COc1cc(-c2cncc(-c3ccc(N4CCN(C)CC4)cc3)c2C)cc(F)c1C(N)=O [Compound 26a, 2-Fluoro-6-methoxy-4-(4-methyl-5-(4-(4-methylpiperazin-1-yl)phenyl)pyridin-3-yl)benzamide]
- remaining activity at 1 µM (DLK/MAP3K12): 93.7%
- remaining activity at 1 µM (PIM2): 99.2%
- remaining activity at 1 µM (SGK2): 102%
- % enzyme activity (EPHA5): 90.37%
- % enzyme activity (ZAP70): 94.79%
- % enzyme activity (FLT1/VEGFR1): 105.29%
- % enzyme activity (MYLK3): 98.90%

Structure (SMILES): COc1cc(-c2cncc(-c3ccc(N4C[C@@H](C)N(C)[C@@H](C)C4)cc3)c2C)cc(F)c1C(N)=O [Compound 26c, 2-Fluoro-6-methoxy-4-(4-methyl-5-(4-((3R,5S)-3,4,5-trimethylpiperazin-1-yl)phenyl)pyridin-3-yl)benzamide]
- remaining activity at 1 µM (DLK/MAP3K12): 99.2%
- remaining activity at 1 µM (PIM2): 99.7%
- remaining activity at 1 µM (SGK2): 103%
- % enzyme activity (EPHA5): 90.66%
- % enzyme activity (ZAP70): 98.47%
- % enzyme activity (FLT1/VEGFR1): 104.04%
- % enzyme activity (MYLK3): 99.34%
